# Entries after “also recorded” stand apart in the source; their conditions may differ. Where two headings read alike, the source gives them in different places.
# Legend:
# [1] = test system: glutamate dehydrogenase (GDH); settings: literature (Yielding and Tomkins 1961); cited from earlier work
# clinical = settings: human, in vivo
# From the text: FIG. 4. Results of the branched-chain amino acid oral test dose. […] Blood samples were drawn at the times indicated and processed as previously described(5). Data points represent mean values from 9 patients ±SEM. * Denotes p<0.001 and p<005. Symbols refer comparisons to 0 time values according to the student's t-test.
# (§1) Baseline blood chemistries and complete blood counts (CBC were obtained. To assure bioavailability of the BCAA, an oral test dose of the above-described mixture or placebo was given after overnight fasting at baseline. Blood samples were drawn at 0, 60 and 120 minutes after dosing for multi-chemistries, CBSs and serum ammonia and amino acid levels. In addition, a random blood sample was obtained for the above studies at three month intervals with no attention paid to time of oral dosing. Plasma amino acid levels were assayed as previously described. [A. Platakis and J. Caroscio, "Abnormal Glutamate Metabolism in Amyotrophic Lateral Sclerosis, " Ann Neurol, 1987, 22:575-579. The contents of this article are herein incorporated by reference]
# [2] = Random blood samples during the one-year trial: plasma amino acid levels; format: in vivo, human; settings: amino acid-treated ALS patients
# Experimental: as §1
# ALS = settings: literature (Patten and Klein 1988); cited from earlier work
# [3] = target: T1, glutamate dehydrogenase (GDH) (Homo sapiens, UniProt P00367); assay: In vitro leucine activation of membrane bound GDH in post mortem brain tissue; format: biochemical; settings: for activity at 250 µM: leucine 0.25 mM; for activity at 500 µM: leucine 0.50 mM; for activity at 1000 µM: leucine 1.0 mM; for activity at 5000 µM: leucine 5.0 mM; for activity at 10000 µM: leucine 10 mM
# T1 construct: GDH present in post mortem brain tissue; from tissue; host or cells: human post mortem brain: cerebellum (control and multisystem atrophy patient 1), frontal cortex (multisystem atrophy patient 2)
# T1 sequence (P00367 54-558): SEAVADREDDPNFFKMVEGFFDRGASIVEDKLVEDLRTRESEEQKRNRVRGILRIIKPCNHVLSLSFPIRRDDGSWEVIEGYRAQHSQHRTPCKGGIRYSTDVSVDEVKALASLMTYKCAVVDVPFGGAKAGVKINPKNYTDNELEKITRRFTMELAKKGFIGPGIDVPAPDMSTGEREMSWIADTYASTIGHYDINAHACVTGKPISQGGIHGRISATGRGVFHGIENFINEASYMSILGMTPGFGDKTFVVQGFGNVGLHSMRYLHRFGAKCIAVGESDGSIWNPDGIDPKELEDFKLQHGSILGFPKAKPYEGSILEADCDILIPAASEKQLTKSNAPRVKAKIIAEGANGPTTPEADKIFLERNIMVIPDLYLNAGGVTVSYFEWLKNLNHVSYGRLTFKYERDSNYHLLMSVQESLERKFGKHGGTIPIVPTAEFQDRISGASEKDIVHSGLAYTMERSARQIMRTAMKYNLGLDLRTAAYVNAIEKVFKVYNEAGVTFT
# From the text: (Table 4) Tissue preparation and GDH determinations were done according to methods previously reported. [A. D. Colon, A. Plaitakis, S. Berl, and D. D. Clark. "The purification and characterization of soluble and particulate Glutamate Dehydrogenase in Rat Brain," Neurochemistry, 1986, 46:1811-1819. The contents of this publication are herein incorporated by reference] […] FIG. 4.
# [4] = in vivo; cited from earlier work
# [5] = Control Patient Cerebellum, read-out: Percent Baseline GDH Activity
# [6] = Multisystem Atrophy Multineuron Disease Patient 1 Cerebellum, read-out: Percent Baseline GDH Activity
# [7] = Multisystem Atrophy Multineuron Disease Patient 2 Frontal Cortex, read-out: Percent Baseline GDH Activity
smiles,measurement,setting,value
CC[C@H](C)[C@H](N)C(=O)O [L-isoleucine],activation of glutamate dehydrogenase in vitro,[1],allosterically activate; also recorded: can be activated
same,increase in plasma level following oral dosing,clinical; 60 min,393%
same,increase in plasma level following oral dosing,clinical; 120 min,183%
same,plasma level higher than that of placebo-treated patients,[2],93%
same,status of ALS patients treated with it as placebo substituted for L-threonine,ALS,revert to previous status
CC(C)[C@H](N)C(=O)O [L-valine],activation of glutamate dehydrogenase in vitro,[1],allosterically activate
same,increase in plasma level following oral dosing,clinical; 60 min,95%
same,increase in plasma level following oral dosing,clinical; 120 min,53%
same,plasma level higher than that of placebo-treated patients,[2],61%
CC(C)C[C@H](N)C(=O)O [L-leucine],activity at 250 µM,[3]; [5],117%
same,activity at 500 µM,[3]; [5],135%
same,activity at 1000 µM,[3]; [5],143%
same,activity at 2500 µM,"[3]; Control Patient Cerebellum, leucine 2.5 mM, read-out: Percent Baseline GDH Activity",155%
same,activity at 5000 µM,[3]; [5],155%
same,activity at 10000 µM,[3]; [5],160%
same,activity at 250 µM,[3]; [6],117%
same,activity at 500 µM,[3]; [6],153%
same,activity at 1000 µM,[3]; [6],186%
same,activity at 5000 µM,[3]; [6],176%
same,activity at 10000 µM,[3]; [6],176%
same,activity at 150 µM,"[3]; Multisystem Atrophy Multineuron Disease Patient 2 Frontal Cortex, leucine 0.15 mM, read-out: Percent Baseline GDH Activity",122%
same,activity at 250 µM,[3]; [7],128%
same,activity at 500 µM,[3]; [7],141%
same,lowest concentration effective in producing increases in GDH activity,"[3]; post mortem brain tissue, effect concentration dependent",0.15 mM
same,activation of glutamate dehydrogenase in vitro,[1],allosterically activate; also recorded: can be activated
same,effect on plasma and CSF levels of the other two BCAAs,[4],severely depress
same,increase in plasma level following oral dosing,clinical; 60 min,300%
same,increase in plasma level following oral dosing,clinical; 120 min,192%
same,concentration at 1 h,clinical; po,~450 µM
same,concentration at 2 h,clinical; po,~300 µM
same,plasma level higher than that of placebo-treated patients,[2],112%
same,status of ALS patients treated with it as placebo substituted for L-threonine,ALS,revert to previous status
